Measured values taken from ChEMBL document CHEMBL5465560, “Selectivity Literature for EUbOPEN Chemogenomic Library” (2024).

What was measured:
[1] = target: Phosphatidylinositol 4-phosphate 3-kinase C2 domain-containing subunit beta (Homo sapiens) (UniProt O00750); test: Selectivity interaction (Adapta Assay) EUB0001632a PIK3C2B; conditions: at 10 µM
[2] = system: RAF proto-oncogene serine/threonine-protein kinase (Homo sapiens), P04049 [Y340D,Y341D]; test: Selectivity interaction (SelectScreen profiling (Invitrogen)) EUB0000607a RAF1; conditions: at 2 µM
[3] = target: T1, Tyrosine-protein kinase TXK (Homo sapiens) (UniProt P42681); conditions: at 10 µM
T1 sequence (whole entry): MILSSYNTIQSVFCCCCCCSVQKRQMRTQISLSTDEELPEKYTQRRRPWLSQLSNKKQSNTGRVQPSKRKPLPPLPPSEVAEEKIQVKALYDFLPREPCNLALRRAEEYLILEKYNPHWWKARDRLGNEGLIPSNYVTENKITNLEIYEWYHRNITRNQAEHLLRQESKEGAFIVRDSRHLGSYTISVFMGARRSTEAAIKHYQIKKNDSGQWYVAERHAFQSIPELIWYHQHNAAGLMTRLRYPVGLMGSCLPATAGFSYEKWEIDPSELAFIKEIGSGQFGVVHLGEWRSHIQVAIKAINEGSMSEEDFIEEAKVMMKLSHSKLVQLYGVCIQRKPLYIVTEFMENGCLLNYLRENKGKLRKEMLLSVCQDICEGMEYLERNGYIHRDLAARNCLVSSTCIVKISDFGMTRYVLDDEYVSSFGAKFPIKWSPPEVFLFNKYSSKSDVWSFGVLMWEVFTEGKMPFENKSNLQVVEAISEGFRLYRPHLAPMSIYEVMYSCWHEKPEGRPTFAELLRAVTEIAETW

[4] = target: Cyclin-dependent kinase 5 (Homo sapiens, UniProt Q00535); test: Selectivity interaction (ActivX KiNativ screen (kinase selectivity in THP-1 cell lysates)) EUB0000639a CDK5; format: subcellular; conditions: lysate
[5] = target: Epidermal growth factor receptor (Homo sapiens, UniProt P00533); test: Selectivity interaction (Kinase panel (Invitrogen)) EUB0000639a EGFR; conditions: at 200 nM
Insulin receptor = Insulin receptor (Homo sapiens, UniProt P06213); test: Selectivity interaction (KinomeScan (DiscoverX)) EUB0000695a INSR; conditions: at 100 nM
[6] = target: T2, Serine/threonine-protein kinase Nek1 (Homo sapiens) (UniProt Q96PY6); test: Selectivity interaction (Kinase panel (KiNativ target engagement assay in Jurkat cells)) EUB0001635a NEK1; format: cell-based; conditions: at 1 µM
T2 sequence (whole entry): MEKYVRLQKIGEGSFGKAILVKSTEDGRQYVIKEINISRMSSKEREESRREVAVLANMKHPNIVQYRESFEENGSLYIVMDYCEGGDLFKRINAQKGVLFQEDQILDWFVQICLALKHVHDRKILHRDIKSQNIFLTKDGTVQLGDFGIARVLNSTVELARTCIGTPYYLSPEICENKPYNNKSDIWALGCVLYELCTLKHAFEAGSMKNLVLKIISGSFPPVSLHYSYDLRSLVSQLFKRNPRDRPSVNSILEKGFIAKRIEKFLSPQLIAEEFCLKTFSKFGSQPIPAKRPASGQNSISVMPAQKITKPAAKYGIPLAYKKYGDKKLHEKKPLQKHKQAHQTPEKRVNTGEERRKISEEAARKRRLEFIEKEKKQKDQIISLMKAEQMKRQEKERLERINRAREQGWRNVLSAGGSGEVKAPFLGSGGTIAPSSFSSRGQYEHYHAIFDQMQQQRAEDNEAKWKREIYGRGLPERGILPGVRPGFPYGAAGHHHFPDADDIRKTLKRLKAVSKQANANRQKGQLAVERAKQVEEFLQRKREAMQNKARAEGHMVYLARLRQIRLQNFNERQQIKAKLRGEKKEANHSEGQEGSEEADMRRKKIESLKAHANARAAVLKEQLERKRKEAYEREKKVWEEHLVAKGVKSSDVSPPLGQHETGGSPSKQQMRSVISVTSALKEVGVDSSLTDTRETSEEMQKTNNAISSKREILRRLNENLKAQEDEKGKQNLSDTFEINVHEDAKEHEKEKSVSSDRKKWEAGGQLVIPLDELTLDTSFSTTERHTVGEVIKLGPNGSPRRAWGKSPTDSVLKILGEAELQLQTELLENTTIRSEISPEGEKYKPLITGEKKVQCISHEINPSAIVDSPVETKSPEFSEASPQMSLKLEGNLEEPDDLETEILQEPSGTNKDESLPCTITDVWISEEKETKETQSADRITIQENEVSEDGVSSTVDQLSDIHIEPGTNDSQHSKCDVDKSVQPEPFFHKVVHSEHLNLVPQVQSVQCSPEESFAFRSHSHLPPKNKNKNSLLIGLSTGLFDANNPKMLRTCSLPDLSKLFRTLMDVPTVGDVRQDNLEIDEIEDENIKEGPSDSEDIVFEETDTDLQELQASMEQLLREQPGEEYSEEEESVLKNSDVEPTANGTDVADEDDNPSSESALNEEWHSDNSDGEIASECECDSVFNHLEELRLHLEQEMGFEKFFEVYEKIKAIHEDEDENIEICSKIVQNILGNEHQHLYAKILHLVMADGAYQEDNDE

Sequence of Cyclin-dependent kinase 5 (Q00535 whole entry, looked up): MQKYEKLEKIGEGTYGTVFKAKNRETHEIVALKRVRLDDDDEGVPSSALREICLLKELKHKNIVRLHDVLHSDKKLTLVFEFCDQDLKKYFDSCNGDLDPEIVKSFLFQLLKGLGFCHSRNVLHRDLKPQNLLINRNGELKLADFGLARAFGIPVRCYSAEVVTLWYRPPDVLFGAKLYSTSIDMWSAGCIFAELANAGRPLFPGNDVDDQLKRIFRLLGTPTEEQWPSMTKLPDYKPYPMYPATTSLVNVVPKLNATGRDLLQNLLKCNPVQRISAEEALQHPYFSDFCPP
Sequence of Epidermal growth factor receptor (P00533 whole entry): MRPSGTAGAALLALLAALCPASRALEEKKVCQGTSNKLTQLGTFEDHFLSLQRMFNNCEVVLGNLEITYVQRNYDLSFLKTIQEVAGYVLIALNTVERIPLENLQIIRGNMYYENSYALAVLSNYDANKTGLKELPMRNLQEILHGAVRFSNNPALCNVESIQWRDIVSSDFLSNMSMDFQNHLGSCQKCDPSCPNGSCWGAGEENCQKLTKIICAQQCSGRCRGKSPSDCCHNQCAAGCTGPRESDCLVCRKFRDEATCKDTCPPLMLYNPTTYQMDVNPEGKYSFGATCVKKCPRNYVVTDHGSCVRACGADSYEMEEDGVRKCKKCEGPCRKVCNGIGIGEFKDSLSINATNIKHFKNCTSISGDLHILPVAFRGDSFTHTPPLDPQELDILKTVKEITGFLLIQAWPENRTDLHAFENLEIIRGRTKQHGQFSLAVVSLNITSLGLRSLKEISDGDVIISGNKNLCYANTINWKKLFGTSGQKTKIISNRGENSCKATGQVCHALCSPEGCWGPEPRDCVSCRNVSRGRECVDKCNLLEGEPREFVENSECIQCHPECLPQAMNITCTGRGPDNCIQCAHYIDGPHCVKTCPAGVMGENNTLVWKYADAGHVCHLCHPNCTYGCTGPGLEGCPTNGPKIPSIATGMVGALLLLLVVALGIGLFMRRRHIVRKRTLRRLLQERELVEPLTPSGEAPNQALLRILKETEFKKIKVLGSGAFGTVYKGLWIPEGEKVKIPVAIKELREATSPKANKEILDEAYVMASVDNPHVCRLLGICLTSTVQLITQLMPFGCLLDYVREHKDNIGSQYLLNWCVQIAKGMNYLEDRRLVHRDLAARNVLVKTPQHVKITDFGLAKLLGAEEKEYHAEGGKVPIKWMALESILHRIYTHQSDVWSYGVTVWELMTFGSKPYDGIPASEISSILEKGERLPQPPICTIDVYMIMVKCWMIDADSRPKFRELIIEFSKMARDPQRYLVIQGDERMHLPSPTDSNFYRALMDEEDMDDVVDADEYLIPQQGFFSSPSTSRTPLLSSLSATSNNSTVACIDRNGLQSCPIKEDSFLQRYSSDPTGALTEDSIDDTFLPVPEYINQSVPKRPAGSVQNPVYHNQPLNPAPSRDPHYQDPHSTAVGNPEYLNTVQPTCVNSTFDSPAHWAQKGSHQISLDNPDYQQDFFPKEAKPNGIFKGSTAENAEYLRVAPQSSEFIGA
Sequence of Phosphatidylinositol 4-phosphate 3-kinase C2 domain-containing subunit beta (Homo sapiens) (O00750 whole entry, the tested form may be a part): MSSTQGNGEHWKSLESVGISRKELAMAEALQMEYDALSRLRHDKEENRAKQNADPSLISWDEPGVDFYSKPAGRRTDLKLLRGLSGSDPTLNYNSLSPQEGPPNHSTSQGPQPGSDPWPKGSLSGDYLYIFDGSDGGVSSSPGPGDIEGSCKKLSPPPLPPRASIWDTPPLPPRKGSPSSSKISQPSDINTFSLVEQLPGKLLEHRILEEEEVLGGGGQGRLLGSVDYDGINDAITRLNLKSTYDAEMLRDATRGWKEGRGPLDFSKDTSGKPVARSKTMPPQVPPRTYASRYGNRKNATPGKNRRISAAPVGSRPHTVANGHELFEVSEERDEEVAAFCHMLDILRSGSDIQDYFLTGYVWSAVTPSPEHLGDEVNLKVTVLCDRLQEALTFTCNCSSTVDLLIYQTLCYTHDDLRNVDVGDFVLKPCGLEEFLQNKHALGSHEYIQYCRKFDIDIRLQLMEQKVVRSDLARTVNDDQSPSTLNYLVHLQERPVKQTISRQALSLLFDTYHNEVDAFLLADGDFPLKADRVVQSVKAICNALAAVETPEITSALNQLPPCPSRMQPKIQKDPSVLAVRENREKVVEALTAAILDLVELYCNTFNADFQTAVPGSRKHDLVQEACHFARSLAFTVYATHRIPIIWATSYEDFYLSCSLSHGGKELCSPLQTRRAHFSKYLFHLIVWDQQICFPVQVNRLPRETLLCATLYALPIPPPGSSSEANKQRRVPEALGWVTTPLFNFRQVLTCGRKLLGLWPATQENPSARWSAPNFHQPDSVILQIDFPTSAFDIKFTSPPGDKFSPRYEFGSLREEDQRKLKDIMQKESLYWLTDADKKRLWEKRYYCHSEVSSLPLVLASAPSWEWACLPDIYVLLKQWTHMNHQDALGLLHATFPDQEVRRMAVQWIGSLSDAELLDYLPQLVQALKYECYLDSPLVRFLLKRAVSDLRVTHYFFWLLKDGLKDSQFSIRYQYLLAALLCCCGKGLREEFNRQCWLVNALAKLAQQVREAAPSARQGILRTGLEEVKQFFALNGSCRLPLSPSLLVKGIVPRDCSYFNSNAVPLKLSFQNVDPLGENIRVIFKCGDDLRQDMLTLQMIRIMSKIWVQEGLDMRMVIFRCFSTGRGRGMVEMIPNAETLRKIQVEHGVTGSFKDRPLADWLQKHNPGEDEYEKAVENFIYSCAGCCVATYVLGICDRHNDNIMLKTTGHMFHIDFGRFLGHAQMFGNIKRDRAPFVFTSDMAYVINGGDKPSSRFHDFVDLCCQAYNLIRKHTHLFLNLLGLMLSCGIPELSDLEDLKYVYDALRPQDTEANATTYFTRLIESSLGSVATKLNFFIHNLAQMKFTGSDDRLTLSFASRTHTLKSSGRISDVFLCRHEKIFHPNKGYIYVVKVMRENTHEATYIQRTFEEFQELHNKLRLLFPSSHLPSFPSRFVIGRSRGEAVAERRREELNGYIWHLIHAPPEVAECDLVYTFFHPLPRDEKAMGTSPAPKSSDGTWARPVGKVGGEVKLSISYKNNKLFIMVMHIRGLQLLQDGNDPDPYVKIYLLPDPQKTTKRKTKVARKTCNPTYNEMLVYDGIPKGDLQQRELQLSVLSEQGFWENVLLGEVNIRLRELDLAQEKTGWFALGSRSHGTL
Sequence of Insulin receptor (P06213 28-758 limits assumed): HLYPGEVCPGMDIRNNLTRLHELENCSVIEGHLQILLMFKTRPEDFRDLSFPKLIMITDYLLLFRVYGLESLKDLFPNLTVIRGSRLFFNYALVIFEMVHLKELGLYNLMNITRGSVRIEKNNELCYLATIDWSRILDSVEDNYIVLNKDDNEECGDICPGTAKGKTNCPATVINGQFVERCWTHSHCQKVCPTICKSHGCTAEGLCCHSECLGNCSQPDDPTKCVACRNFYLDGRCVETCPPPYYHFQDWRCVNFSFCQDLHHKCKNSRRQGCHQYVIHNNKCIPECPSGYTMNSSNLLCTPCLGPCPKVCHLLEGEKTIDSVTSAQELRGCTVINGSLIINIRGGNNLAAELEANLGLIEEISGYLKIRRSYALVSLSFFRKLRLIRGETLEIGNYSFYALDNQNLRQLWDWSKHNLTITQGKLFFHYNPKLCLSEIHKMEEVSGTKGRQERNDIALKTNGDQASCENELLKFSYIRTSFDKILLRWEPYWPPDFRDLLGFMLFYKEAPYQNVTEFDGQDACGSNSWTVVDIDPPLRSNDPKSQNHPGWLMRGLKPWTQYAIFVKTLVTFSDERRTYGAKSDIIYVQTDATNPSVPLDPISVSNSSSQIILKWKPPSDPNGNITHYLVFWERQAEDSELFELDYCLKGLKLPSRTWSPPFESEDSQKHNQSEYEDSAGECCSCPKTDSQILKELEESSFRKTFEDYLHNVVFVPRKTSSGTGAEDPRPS
Sequence of Insulin receptor (P06213 763-1382 limits assumed): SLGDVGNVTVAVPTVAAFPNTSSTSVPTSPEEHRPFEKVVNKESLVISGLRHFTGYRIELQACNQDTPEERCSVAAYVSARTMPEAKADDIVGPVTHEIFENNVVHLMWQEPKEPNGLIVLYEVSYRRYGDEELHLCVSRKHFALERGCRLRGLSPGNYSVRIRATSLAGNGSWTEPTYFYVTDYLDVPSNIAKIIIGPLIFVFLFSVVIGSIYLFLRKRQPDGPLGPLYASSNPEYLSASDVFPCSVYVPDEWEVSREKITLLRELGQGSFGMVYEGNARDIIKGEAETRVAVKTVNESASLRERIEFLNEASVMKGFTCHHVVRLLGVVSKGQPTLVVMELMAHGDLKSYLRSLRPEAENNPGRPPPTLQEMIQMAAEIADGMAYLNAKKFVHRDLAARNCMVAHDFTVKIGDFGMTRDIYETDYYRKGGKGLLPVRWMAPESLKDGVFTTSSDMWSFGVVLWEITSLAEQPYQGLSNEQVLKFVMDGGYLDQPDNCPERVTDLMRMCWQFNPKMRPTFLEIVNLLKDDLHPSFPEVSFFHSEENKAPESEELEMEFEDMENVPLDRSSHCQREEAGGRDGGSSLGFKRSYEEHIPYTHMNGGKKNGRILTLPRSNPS

## Cn1cc(-n2cnc3c(NCc4nc5cc(Cl)c(Cl)cc5[nH]4)nc(N4CCOCC4)nc32)cn1
[1]
  % of inhibition: 64.1%

## CNC(=O)Nc1ccc(-c2nc(N3CC4CCC(C3)O4)c3cnn(C4CCC5(CC4)OCCO5)c3n2)cc1
[2]
  % of inhibition: 12%

## CCN(CC)CCCCNc1ncc2cc(-c3cc(OC)cc(OC)c3)c(NC(=O)NC(C)(C)C)nc2n1
[3]
  % of control: 100%

## CC[C@@H]1[C@H](F)C(=O)N[C@@H]1COc1nccc2cc(C(N)=O)c(OC)cc12 [ZIMLOVISERTIB]
[4]; at 0.01 µM
  % of inhibition: 3.6%
[4]; at 0.04 µM
  % of inhibition: 3.9%
[4]; at 0.2 µM
  % of inhibition: -0.2%
[4]; at 1 µM
  % of inhibition: 2.7%
[4]; at 5 µM
  % of inhibition: -6.9%
[5]
  % of inhibition: 1.25%

## Cc1cc(F)c(C(=O)Nc2cccc(-c3nncn3C(C)C)n2)cc1-n1cnc(C2CC2)c1
Insulin receptor
  % of control: 100%

## C=CC(=O)Nc1ccc(C(=O)Nc2[nH]nc3c2CN(C(=O)N[C@H](CN(C)C)c2ccccc2)C3(C)C)cc1
[6]
  % of engagement: -2.5%
